“And” between values parts separate entries of the source, which are not always exact repeats. Equal entries are not always repeated. “Also recorded” adds a separate entry of the source.
Assay: Cyclic voltammetry: anodic peak potentials of aqueous Eu(II) cryptates vs ferrocene/ferrocenium (oxidative stability)
Assay type: physicochemical
Details: for Anodic peak potentials (Epa) with respect to ferrocene/ferrocenium (Fc/Fc+): aqueous MOPS 0.01 M pH 7.5, Et4NClO4 0.05 M, Ar, ambient temperature, scan rate 150 mV/s, mean ± standard error; for Increase in oxidative stability of Eu(II) compared to cryptand 3: difference in anodic peak potential, Eu(II) complex of the cryptand
Text: To synthesize the diverse set of cryptands 2 and 4-6, a three-step procedure was devised that involved common intermediates 7, 9, and 11 (Scheme 1). Briefly, the synthesis involved the conversion of the appropriate ethylenediols or catechols to the corresponding ditosylates (7, 9, and 11) followed by ring closure with 1,4,10,13-tetraoxa-7,16-diazacyclooctadecane, 2,2′-(ethylenedioxy)bis(ethylamine) or 1,4,10,13-tetrathia-7,16-diazacyclooctadecane.
To synthesize the diverse set of cryptands 1-6, a three-step procedure was devised that involved common intermediates 7, 9, and 11 (Scheme 1). Briefly, the synthesis involved the conversion of the appropriate ethylenediols or catechols to the corresponding ditosylates (7, 9, and 11) followed by ring closure with 1,4,10,13-tetraoxa-7,16-diazacyclooctadecane, 2,2′-(ethylenedioxy)bis(ethylamine), or 1,4,10,13-tetrathia-7,16-diazacyclooctadecane. […] The resulting solution was placed in a standard three-electrode cell (glassy-carbon working electrode, Pt-wire auxiliary electrode, and Ag/AgCl (1.0 M KCl) reference electrode). The potential at the carbon electrode was held at −0.8 V (vs Ag/AgCl) while stirring to produce Eu^II in situ for metalation.
^1H NMR spectra were obtained using a Varian Unity 300 (300 MHz) spectrometer and a Mercury 400 (400 MHz) spectrometer, ^13C NMR spectra were obtained using a Varian Unity 300 (75 MHz) spectrometer and a Mercury 400 (101 MHz) spectrometer. ^19F NMR spectra were obtained using Varian Unity 300 (282 MHz) spectrometer. […] NMR data are assumed to be first order, and the apparent multiplicity is reported as “s”=singlet, “d”=doublet, “dd”=doublet of doublets, “t”=triplet, “td”=triplet of doublets, “q”=quartet, “m”=multiplet, or “brs”=broad singlet. Italicized elements are those that are responsible for the shifts. High-resolution electrospray ionization mass spectra (HRESIMS) were obtained on an electrospray time-of-flight high-resolution Waters Micromass LCT Premier XE mass spectrometer. Cyclic voltammetric analyses were performed using a WaveNow USB potentiostat (Pine Research Instrumentation). A standard three-electrode cell was used with a glassy-carbon working electrode, a Pt-wire auxiliary electrode, and a Ag/AgCl reference electrode (1.0 M KCl). All electrochemical experiments were performed under an Ar atmosphere at ambient temperature with Et4NClO4 (0.05 M) as the supporting electrolyte, an aqueous solution of 3-(N-morpholino)propanesulfonic acid (MOPS, 0.01 M, pH 7.5) as the solvent, and the ferrocene/ferrocinium (Fc/Fc+) redox couple as an internal standard. From the initial potential of the analysis (−1.5 V), the voltage was ramped to 0.75 V and back to −1.5 V at a scan rate of 150 mV/s. […] After each measurement, ferrocene (6.7 mM in acetonitrile) was added to the sample (0.13 mM ferrocene after addition) and the measurement was repeated to enable referencing to Fc/Fc+.
To an aqueous solution of 3-(N-morpholino)propanesulfonic acid (MOPS) (0.01 M, pH 7.5), Et4NClO4 (0.05 M), and Eu(NO3)3.5H2O (1.1 mM, 1 equiv) was added a solution of the desired cryptand (12 mM, 1.2 equiv) in acetonitrile, and the resulting mixture was sparged with Ar for 5 minutes. The potential of the resulting solution was held at −0.8 V (30 minutes per 0.01 mmol of Eu(NO3)3.5H2O) while stirring under constant sparging with Ar. Immediately after holding the potential at −0.8 V, cyclic voltammograms were obtained in the potential range of −1.5 to 0.75 V at a scan rate of 150 mV/s. After acquiring the voltammogram, ferrocene (6.7 mM in acetonitrile, 0.1 equiv) was added, and another cyclic voltammogram was obtained. These cyclic voltammetric experiments were repeated 3-6 times for each ligand.

Question: For “hemoglobin: Human hemoglobin from RayBiotech Inc.; Fe(II) oxidation used as biological comparison [reference compound]”, which “Anodic peak potentials (Epa) with respect to ferrocene/ferrocenium (Fc/Fc+)” value is on record?
Answer: Its value is −0.070 ± 0.003 V vs, Fc/Fc^+.

Question: For `c1ccc2c(c1)OCCN1CCOCCOCCN(CCO2)CCOc2ccccc2OCC1` [cryptand 5, 5,6,14,15-Dibenzo-4,7,13,16,21,24-hexaoxa-1,10-diazabicyclo[8.8.8]hexacosane], which “Anodic peak potential compared to mono-phenyl substituted cryptand 3 (in words)” value (p=0.76) is on record?
Answer: Its value is “no significant difference”.

Question: Which “Anodic peak potentials (Epa) with respect to ferrocene/ferrocenium (Fc/Fc+)” value does the source give for `c1ccc2c(c1)OCCN1CCSCCSCCN(CCO2)CCSCCSCC1` [6-Eu] here?
Answer: The value was −0.035 ± 0.010 V vs, Fc/Fc^+.

Question: With `CC1(C)OCCN2CCOCCOCCN(CCOC1(C)C)CCOC(C)(C)C(C)(C)OCC2` [cryptand 2, 5,5,6,6,14,14,15,15-Octamethyl-4,7,13,16,21,24-hexaoxa-1,10-diazabicyclo[8.8.8]hexacosane] as the compound, how does the “Oxidative stability compared to unmodified cryptand 1 (in words)” value (cyclic voltammetric data of Eu-containing solutions) read?
Answer: Its value is “increased oxidative stability”.

Question: What does the source list for `Fc1ccc2c(c1)OCCN1CCOCCOCCN(CCOCCOCC1)CCO2` [4-Eu]?
Answer: Oxidative stability compared to hemoglobin (in words) (Fe(II) in hemoglobin, p=0.64, p=0.45): statistically identical; also recorded: not different; Anodic peak potentials (Epa) with respect to ferrocene/ferrocenium (Fc/Fc+): −0.079 ± 0.007 V vs, Fc/Fc^+

Question: With `Fc1ccc2c(c1)OCCN1CCOCCOCCN(CCOCCOCC1)CCO2` [cryptand 4, 5,6-(4-Fluorobenzo)-4,7,13,16,21,24-hexaoxa-1,10-diazabicyclo[8.8.8]hexacos-5-ene] as the compound, how does the “Increase in oxidative stability of Eu(II) compared to cryptand 3” value read?
Answer: Its value is 133 mV and 129 mV.

Question: For `O=[N+]([O-])[O-].O=[N+]([O-])[O-].O=[N+]([O-])[O-].[Eu+3]` [Eu(NO3)3, reference compound], which “Anodic peak potentials (Epa) with respect to ferrocene/ferrocenium (Fc/Fc+)” value is on record?
Answer: Its value is −0.701 ± 0.030 V vs, Fc/Fc^+.

Question: What does the source list for `c1ccc2c(c1)OCCN1CCSCCSCCN(CCO2)CCSCCSCC1` [cryptand 6, 5,6-Benzo-4,7-dioxa-13,16,21,24-tetrathia-1,10-diazabicyclo[8.8.8]hexacos-5-ene]?
Answer: Oxidative potential more positive than hemoglobin (Fe^2+/3+) (cryptand with Eu(II)): 35 mV; Oxidative potential more positive than the Eu aqua ion (cryptand with Eu(II)): 666 mV; Increase in oxidative stability of Eu(II) compared to cryptand 3: 173 mV
